The subject of one data set is normal rat. Nature of the data set: Schirmer test (tear production) in a normal rat, topical drops. It counts as in vivo. Particulars: 3% NTX solution, topical drop. As for the experimental part: (§1) Four solutions were prepared with 0%, 0.5%, 1.5%, and 3% naltrexone (NTX). Previous formulations contained 0.003% NTX.
(§2) Experimental paradigm: 1-4 rats were tested with each dose (mixture of male and females). Left eyes only were treated twice daily with one drop. • Schirmer test for baseline (to determine tear production and establish dry eye) • Add drop at 0800 and again at 1700 hr (4:40-6:00 pm) • Take Schirmer test 24 hr later • Add drop at 0800 and again at 1700 hr (4th drop) • Take Schirmer test 48 hr after first drop

In the next data set the test system is diabetic rats. Put plainly: Schirmer test (tear production) in hyperglycemic rats with dry eye, topical drops twice daily. It counts as in vivo, Sprague-Dawley rats. As for the experimental part:
as §1
Adult male and female Sprague-Dawley rats were rendered hyperglycemic for 6-8 weeks, with blood glucose levels >600 mg/dL. Age at time of testing was 15-18 weeks of age.
as §2

With `O=C1CC[C@@]2(O)[C@H]3Cc4ccc(O)c5c4[C@@]2(CCN3CC2CC2)[C@H]1O5` [NTX, 17-(cyclopropylmethyl)-4,5α-epoxy-3,14-dihydroxymorphinan-6-one], the “effect on dry eye in a normal rat” value with normal rat was “caused dry eye”. For the same molecule, the “reversal of dry eye” value is given as “reversed dry eye” in the data set with diabetic rats (0.5% NTX solution, one drop twice daily, Schirmer test at 24 and 48 hr); “reversed dry eye” in the data set on diabetic rats (1.5% NTX solution, one drop twice daily, Schirmer test at 24 and 48 hr); “effective at reversing dry eye” in the data set on diabetic rats (3% NTX solution left at RT for 3 weeks (some decomposition of the NTX)); “did not reverse dry eye” in the data set on diabetic rats (3% NTX solution, both male and female, one drop twice daily, Schirmer test at 24 and 48 hr). Further, the “relative effectiveness among the tested concentrations” value in the data set with diabetic rats (1.5% NTX solution compared with 0.5% and 3%) is listed as “most effective”.

(Values after patent US20250114347A1, “TOPICAL NALTREXONE AS A TREATMENT FOR DRY EYE” (The Penn State Research Foundation, priority 2022, published 2025).)
